Data from patent publication US20190248834A1, “ENDOMORPHIN-2, TETRAPEPTIDE DERIVATIVES THEREOF, AND USES THEREOF” (priority 2016, published 2019).
Non-standard residues stand in square brackets, D forms with d. pGlu = O=C1CC[C@@H](C(=O)O)N1

Experiments:
Assay type in all cases: in vivo, human
[1] = tested on: sub-acute pain of left wrist; experiment: Example 10: analgesic effect on wrist pain, topical
Description: A subject had sub-acute pain of their left wrist, which they twisted while lifting a child.
The subject topically applied an anhydrous composition containing 0.7% (w/v) N-Ac-Tyr-Pro-Phe-Phe-NH2 (SEQ ID NO: 23) in EP73, formulated as described in Example 2, before bedtime. The next morning, about 70% relief of pain was observed. The subject topically re-applied the same composition under plastic film wrap for 2 hours, and the wrist pain was completely eradicated. The subject was free of any wrist pain and the improvement was 100% as judged by clinical evaluation.

[2] = tested on: moderate lower back pain; experiment: Example 23: analgesic effect on lower back pain, topical; details: 1% (w/v) in WEP442, topical
From the text: A subject, working as a house cleaner, complained of moderate lower back pain at the end of a work day.

[3] = tested on: severe nauseating headache; experiment: Example 60: analgesic effect on headache due to inhalation of exhaust fumes, topical; details: 0.5% (w/v) in WEP442, topical
From the text: A construction worker, suffered a severe nauseating headache on a day when, for about an hour, they were exposed to exhaust fumes from a gasoline motor driven dust blower early in the day. The headache persisted all day and into the evening.

[4] = tested on: severe migraine headaches; experiment: Example 41: analgesic effect on migraine headaches, topical
From the text: A subject with severe migraine headaches associated with nausea and vomiting that had been occurring 3-4 times per month over the past 9-10 years, topically applied a composition containing 1% (w/v) of N-Ac-Tyr-Pro-Phe-Phe-NH2 (SEQ ID NO: 23) in WEP442 to the forehead, brow, eyelids and temporal areas at the onset of headaches. […] The frequency of episodes diminished over the next two months, and the subject reported that they experienced no headaches for at least a 5 week period.

[5] = tested on: chronic subpatellar and peripheral patellar pain; experiment: Example 8: analgesic effect on knee pain, topical
From the text: A subject had chronic subpatellar and peripheral patellar pain in their knees.
The subject topically applied an anhydrous composition containing 0.7% (w/v) N-Ac-Tyr-Pro-Phe-Phe-NH2 (SEQ ID NO: 23) in EP73, formulated as described in Example 2, at bedtime. The next morning, they observed about 50% relief of pain. The subject topically re-applied the same composition under a plastic film wrap for one hour, after which they observed about 95% relief of pain.

[6] = tested on: chronic right shoulder pain; experiment: Example 7: analgesic effect on shoulder pain, topical
From the text: A subject had chronic right shoulder pain. The subject was unable to lift their arm above chest level. The subject topically applied an anhydrous solution composition containing 0.5% (w/v) N-Ac-Tyr-Pro-Phe-Phe-NH2(SEQ ID NO: 23) in EP73, formulated as described in the Example 2, on their right shoulder at night. The next morning, 70% relief of pain was observed. The subject re-applied the composition at bedtime. The following morning, 85-90% relief was observed and they were able to lift their arm above their head with only minor discomfort.

[7] = tested on: herpes zoster pain; experiment: Example 6: analgesic effect on viral infection, topical
From the text: A subject had herpes zoster on a temporal branch of the tri-geminal nerve with severe clinical pain involving the areas of left temporal, left forehead, left scalp, left neck, and left ear canal. Touching the left anterior scalp hair provoked severe pain.
The subject topically administered an anhydrous composition containing 0.5% (w/v) N-Ac-Tyr-Pro-Phe-Phe-NH2 (SEQ ID NO: 23) in EP73, formulated as described in Example 2, by applying a few drops to wet the skin surface. […] The pain relief lasted for up to 1 hour. Multiple repeated topical applications of the anhydrous composition containing 0.5% (w/v) N-Ac-Tyr-Pro-Phe-Phe-NH2 (SEQ ID NO: 23) in EP73 gave the same analgesic result with 4+ relief of pain according to clinical evaluation, and also for longer periods of up to 6 hours.

[8] = tested on: tennis elbow pain; experiment: Example 68: analgesic effect on tennis elbow pain, topical
From the text: A person who played tennis recreationally for several decades developed increasingly severe pain in the elbow of their right arm. Two acupuncture treatments provided partial relief. […] They now play tennis with no pain.

[9] = tested on: sprain of the left ankle; experiment: Example 21: analgesic effect on ankle sprain, topical
From the text: A subject, suffered a sprain of the left ankle after stepping on a stone while hiking, twisting the ankle inwardly. Ten days later, after wearing an elastic ankle support daily, pain from the injury persisted. The subject topically applied an anhydrous composition containing 0.7% (w/v) N-Ac-Tyr-Pro-Phe-Phe-NH2 (SEQ ID NO: 23) in EP73, formulated as described in Example 2. […] Upon arising the next morning, the subject experienced mild ankle pain, whereupon the composition was again applied. […] The subject was discomfort free thereafter.

[10] = tested on: chronic foot pain and neck pain; experiment: Example 67: analgesic effect on pain in feet and neck with plaque psoriasis, topical; details: 0.5% (w/v) in WEP442, topical
From the text: A person with plaque psoriasis since their early teenage years had chronic foot pain for the past 10-15 years and neck pain for the past several years. The latter had been associated with, and aggravated by occupationally keeping their neck to one side as they held a phone against their head. […] Such topical applications provided relief for over one month when used.

[11] = tested on: acute right temporal nauseating headache; experiment: Example 49: topical treatment of severe right temporal headache; details: 1% (w/v) in WEP442, topical
From the text: They were given, by a nearby companion, a solution composition containing 1% (w/v) of N-Pg-Tyr-Pro-Phe-Phe-NH2 (SEQ ID NO: 44) in WEP442, which they topically applied to the right temporal area, right closed eyelids, entire forehead and right eyebrow.

[12] = 0.5% (w/v) in EP73, multiple repeated topical applications
[13] = 0.7% (w/v) in EP73, first topical application
[14] = 0.7% (w/v) in EP73, second application

## CC(=O)N[C@@H](Cc1ccc(O)cc1)C(=O)N1CCC[C@H]1C(=O)N[C@@H](Cc1ccccc1)C(=O)N[C@@H](Cc1ccccc1)C(N)=O [N-Ac-Tyr-Pro-Phe-Phe-NH2]
[1]; 0.7% (w/v) in EP73, re-applied under plastic film wrap for 2 hours
  improvement by clinical evaluation: 100%
[1]; 0.7% (w/v) in EP73, topical before bedtime, next morning
  relief of pain: about 70%
[2]
  pain relief: almost complete relief of pain
  time to pain relief: 1 to 2 min
[3]
  pain relief: completely relieved the headache
  time to pain relief: ≤ 2 min
[4]; 1% (w/v) in WEP442, topical
  time to pain relief: 2 to 3 min
[4]; 1% (w/v) in WEP442, topical at onset of headaches
  pain relief: Complete relief of pain and other symptoms
[4]; 1% (w/v) in WEP442, topical, over the next two months
  period without headaches: ≥ 5 week
[5]; 0.7% (w/v) in EP73, re-applied under plastic film wrap for one hour
  relief of pain: about 95%
[5]; 0.7% (w/v) in EP73, topical at bedtime, next morning
  relief of pain: about 50%
[6]; 0.5% (w/v) in EP73, re-applied at bedtime, following morning
  relief of pain: 85-90%
[6]; 0.5% (w/v) in EP73, topical at night, next morning
  relief of pain: 70%
[7]; [12]
  duration of pain relief: up to 6 hours
  relief of pain according to clinical evaluation: 4+ (4+ (90-100%): complete relief or eradication of pain for more than 4 hours)
[7]; 0.5% (w/v) in EP73, topical
  pain relief: pain disappeared completely
  time to pain relief: Within about a minute
[7]; 0.5% (w/v) in EP73, topical, first application
  duration of pain relief: up to 1 hour
[8]; 0.5% (w/v) in WEP442, about 1 week of several applications daily
  range of arm motion: returned to normal
[8]; 0.5% (w/v) in WEP442, topical
  pain relief: substantial relief of pain
  time to pain relief: 2 to 4 min
[9]; 0.7% (w/v) in EP73, application next morning, within about 5 minutes
  pain relief: no discomfort was discernible
[9]; [13]
  pain relief: relieved almost completely
  time to pain relief: 3 to 4 min
[9]; [14]
  pain relief: complete relief of all discomfort
  time to pain relief: ≤ 5 min

## N-Pg-Tyr-Pro-Phe-Phe-NH2 ([pGlu]YPFF-NH2; SMILES NC(=O)[C@H](Cc1ccccc1)NC(=O)[C@H](Cc1ccccc1)NC(=O)[C@@H]1CCCN1C(=O)[C@H](Cc1ccc(O)cc1)NC(=O)[C@@H]1CCC(=O)N1)
[10]
  duration of pain relief: 8 to 10 h
  pain relief: almost complete relief of pain
[11]
  pain relief: the headache subsided completely
  recurrence: did not return
  time to pain relief: 3 to 5 min
